Tests used:
[1] = tested on: mTOR Serine 2448 phosphorylation; assay type: cell-based; details: GBM5 cells, single agent 2.0 μM, 6 h
[2] = tested on: rabbit hemorrhagic disease virus (RHDV); assay: Rabbit hemorrhagic fever virus studies; assay type: in vivo
[3] = tested on: influenza A and B viruses; assay: Influenza virus-mediated cell lysis, live/dead assay in MRC5 cells; assay type: cell-based, human
Ebola virus = assay type: cell-based
HSP27 = HSP27 (Homo sapiens, UniProt P04792); assay: Immuno-fluorescence of HSP27 expression in GBM cells; details: GBM5, GBM6, GBM12 cells, 0–3.0 μM, 3 h
Chain of HSP27 (P04792 whole entry): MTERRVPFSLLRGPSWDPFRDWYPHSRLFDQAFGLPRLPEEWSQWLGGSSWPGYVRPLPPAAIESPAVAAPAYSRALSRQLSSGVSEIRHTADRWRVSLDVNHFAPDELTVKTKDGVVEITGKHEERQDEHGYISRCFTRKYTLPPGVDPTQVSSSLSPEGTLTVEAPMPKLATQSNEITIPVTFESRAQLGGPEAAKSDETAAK

HSP90 ATPase = assay: ATPase activity of immuno-precipitated FLAG-tagged HSP90; details: 30 nM - 1 μM, 30 min at 37 °C
HSP70 ATPase = HSP70 ATPase (Homo sapiens, UniProt P0DMV8); assay: ATPase activity of immuno-precipitated HSP70-GFP; details: 30 nM - 1 μM, 30 min at 37 °C
Chain of HSP70 ATPase (P0DMV8 whole entry): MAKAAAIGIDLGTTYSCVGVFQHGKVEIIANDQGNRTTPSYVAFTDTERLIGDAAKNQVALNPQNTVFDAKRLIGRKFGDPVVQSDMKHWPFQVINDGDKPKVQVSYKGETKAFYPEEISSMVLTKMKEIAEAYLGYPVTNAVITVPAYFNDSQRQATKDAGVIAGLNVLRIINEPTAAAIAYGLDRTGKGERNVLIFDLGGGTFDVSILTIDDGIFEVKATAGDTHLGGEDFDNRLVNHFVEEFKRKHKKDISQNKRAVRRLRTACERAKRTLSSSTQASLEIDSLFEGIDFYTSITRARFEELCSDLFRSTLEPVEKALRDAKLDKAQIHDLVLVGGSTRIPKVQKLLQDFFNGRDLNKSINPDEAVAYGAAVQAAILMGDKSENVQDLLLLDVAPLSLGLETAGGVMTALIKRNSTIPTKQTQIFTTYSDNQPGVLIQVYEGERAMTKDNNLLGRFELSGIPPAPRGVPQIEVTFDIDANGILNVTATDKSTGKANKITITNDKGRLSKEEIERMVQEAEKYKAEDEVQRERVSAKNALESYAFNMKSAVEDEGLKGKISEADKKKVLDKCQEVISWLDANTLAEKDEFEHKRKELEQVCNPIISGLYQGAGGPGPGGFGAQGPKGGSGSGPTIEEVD

[4] = tested on: glucosidase I, glucosidase IIα, glucosidase IIβ; assay: Immuno-fluorescence of glucosidases in GBM12 cells; assay type: cell-based; details: 2.0 μM, 6 h
Junin virus (JUNV) = assay type: cell-based
NPC1 and TIM1 = assay type: cell-based
HSP90, GRP78, and HSP70 = assay: Immuno-fluorescence detection of chaperones in fixed cells; details: HuH7 and HT1080, 0–3.0 μM ± sildenafil 2 μM, 2 h

## NCC(=O)Nc1ccc(-n2nc(C(F)(F)F)cc2-c2ccc3c(ccc4ccccc43)c2)cc1 [AR-12]
[1]
  mTOR Serine 2448 phosphorylation: strongly reduced
[2]; […], vehicle approximately 70% at 60 h, P < 0.05, 25 mg/kg
  animals that had died: approximately 30%
[2]; rabbits, RHDV, 25 mg/kg x4
  liver damage assessed by H&E staining of liver sections: reduced obvious liver damage
  virus-induced increases in plasma ALT, LDH, and GGT levels: significantly reduced
[2]; rabbits, RHDV, at the time of animal nadir, quantitative RT-PCR
  expression of virus protein VP60 mRNA in liver: less expression
[3]
  influenza virus-mediated cell lysis / cell killing: reduced cell lysis / cell killing
Ebola virus
  Ebola virus replication in vitro: suppressed the replication
48 h after dosing
  presence in mouse brain tissue 48 h after dosing: still detectable
mouse, IV bolus 10 mg/kg
  peak brain concentration: 2 µM
  time to cross the blood brain barrier after dosing: ≤ 5 min
HSP27
  expression of HSP27: reduced
HSP90 ATPase
  effect on HSP90 ATPase activity: inhibitory effects
HSP70 ATPase
  effect on HSP70 ATPase activity: inhibitory effects
[4]
  expression of glucosidase I and glucosidase IIα: rapidly reduced the expression
  expression of glucosidase IIβ: did not impact
Junin virus (JUNV)
  JUNV infected cells expressing viral nucleoprotein NP: drastically reduced
  replication of different strains of JUNV: potently inhibited
NPC1 and TIM1
  expression of Ebola virus receptors NPC1 and TIM1 in vitro: reduced the expression
HSP90, GRP78, and HSP70
  detection of HSP90, GRP78, and HSP70 in fixed in situ cells: rapid dose- and time-dependent reduction

## CNC(=O)c1cc(Oc2ccc(NC(=O)Nc3ccc(Cl)c(C(F)(F)F)c3)cc2)ccn1 [sorafenib, reference compound]
[3]
  influenza virus-mediated cell lysis / cell killing: reduced cell lysis / cell killing
HSP27
  expression of HSP27: reduced
HSP90 ATPase
  effect on HSP90 ATPase activity: inhibitory effects
HSP70 ATPase
  effect on HSP70 ATPase activity: inhibitory effects
[4]
  expression of glucosidase I and glucosidase IIα: rapidly reduced the expression
  expression of glucosidase IIβ: did not impact

## Cc1ccc(Nc2nccc(N(C)c3ccc4c(C)n(C)nc4c3)n2)cc1S(N)(=O)=O [pazopanib]
[3]
  influenza virus-mediated cell lysis / cell killing: reduced cell lysis / cell killing
HSP90 ATPase
  effect on HSP90 ATPase activity: inhibitory effects
HSP70 ATPase
  effect on HSP70 ATPase activity: inhibitory effects
